Among the data in ChEMBL document CHEMBL1123683 (J Med Chem, 1987) are Control, IC50 and Oxygen consumption rate, % of control values, retold here.

Structures are written as SMILES.

In assay [1] the target is Prostaglandin G/H synthase 1 (Ovis aries) (UniProt P05979). The following applies: at 500 µM.
For assay [2] the target is unchanged. The experiment in a line: Inhibition of microsomal PGH synthase isolated from sheep seminal vesicles (SSV) estimated as rate of oxygen consumption in presence of 100 uM of the compound. On the set-up: scale not given: the % may be the effect or the level left.
Assay [3] has the same target. The experiment in a line: Inhibition of PGH synthase in sheep seminal vesicle microsomes.
For assay [4] the target is unchanged. The assay can be described thus: Inhibition of microsomal PGH synthase isolated from sheep seminal vesicles (SSV) estimated as rate of oxygen consumption in presence of 100 uM of the compound.
The target is the same in assay [5]. The assay can be described thus: Inhibition of microsomal PGH synthase isolated from sheep seminal vesicles (SSV) estimated as rate of oxygen consumption in presence of 500 uM of the compound. Also on record: scale not given: the % may be the effect or the level left.
Assay [6] has the same target. The assay can be described thus: Inhibition of microsomal PGH synthase isolated from sheep seminal vesicles (SSV) estimated as rate of oxygen consumption in presence of 500 uM of the compound; Compound was found to be insoluble.

Chain of Prostaglandin G/H synthase 1 (Ovis aries) (P05979 whole entry, looked up): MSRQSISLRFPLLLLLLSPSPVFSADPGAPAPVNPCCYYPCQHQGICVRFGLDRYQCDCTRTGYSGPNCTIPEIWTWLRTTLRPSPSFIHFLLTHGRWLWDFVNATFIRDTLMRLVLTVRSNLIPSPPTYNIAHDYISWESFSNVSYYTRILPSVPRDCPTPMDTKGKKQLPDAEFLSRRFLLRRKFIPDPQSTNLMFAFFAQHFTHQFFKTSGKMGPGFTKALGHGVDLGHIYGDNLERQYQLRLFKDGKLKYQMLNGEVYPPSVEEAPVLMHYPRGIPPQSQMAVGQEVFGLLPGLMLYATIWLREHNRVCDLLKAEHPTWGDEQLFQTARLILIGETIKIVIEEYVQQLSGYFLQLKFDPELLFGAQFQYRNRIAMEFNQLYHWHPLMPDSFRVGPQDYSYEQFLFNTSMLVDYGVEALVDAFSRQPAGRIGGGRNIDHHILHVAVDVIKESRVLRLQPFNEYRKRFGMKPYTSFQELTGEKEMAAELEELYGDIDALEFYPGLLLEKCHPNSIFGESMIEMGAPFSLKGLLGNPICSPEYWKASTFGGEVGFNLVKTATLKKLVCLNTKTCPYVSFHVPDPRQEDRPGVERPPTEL

On to `CCCCC(C(=O)Nc1ccc(C)cc1)C(=O)Nc1ccc(C)cc1`, for which the Control in assay [1] turned out to be 97%.
For the compound `CCCCC(C(=O)Nc1ccc(O)cc1)C(=O)Nc1ccc(O)cc1`, the figures for the Control in assay [2] and in assay [1] were 76% and 36%, respectively. In assay [3], this compound came in with an IC50 of 290 µM.
`O=C(CC(=O)Nc1ccc(O)cc1)Nc1ccc(O)cc1` gave an IC50 in assay [3] of 190 µM. Besides, the Oxygen consumption rate, % of control in assay [4] is 67%. The compound further came in with a Control in assay [1] of 25%.
As to `Cc1ccc(NC(=O)CC(=O)Nc2ccc(C)cc2)cc1`, the Control in assay [5] was 66%.
Consider `O=C(CC(=O)Nc1ccc(Cl)cc1)Nc1ccc(Cl)cc1`, for which 420 µM corresponded to half-maximal inhibition in assay [3] (IC50). Besides, the Oxygen consumption rate, % of control in assay [4] is 64%. In assay [1], the Control is 48%.
Take `O=C(CC(=O)Nc1ccccc1)Nc1ccccc1`: the Control is 65% in assay [2] and 55% in assay [1].
On to `CCCCC(C(=O)Nc1ccc(Cl)cc1)C(=O)Nc1ccc(Cl)cc1`, for which the Control entry was “Insoluble” in assay [6] and 96% in assay [2].
Regarding `O=C(CC(=O)Nc1ccc([N+](=O)[O-])cc1)Nc1ccc([N+](=O)[O-])cc1`, the Control in assay [5] was 88%.
Consider `O=C(CCCCC(=O)Nc1ccc(O)cc1)Nc1ccc(O)cc1`, for which the Control was 67% in assay [2] and 26% in assay [1]. In assay [3], this compound had an IC50 of 230 µM.
For `CCCCC(C(=O)Nc1ccc([N+](=O)[O-])cc1)C(=O)Nc1ccc([N+](=O)[O-])cc1`, the Control in assay [2] was 126%; in assay [5], “Insoluble”.
Take `O=C(CCC(=O)Nc1ccc(O)cc1)Nc1ccc(O)cc1`: the Control in assay [5] was 27%. This compound gave an IC50 in assay [3] of 240 µM. In addition, the Oxygen consumption rate, % of control in assay [4] was 79%.
As for `CCCCC(C(=O)Nc1ccc(O)cc1C)C(=O)Nc1ccc(O)cc1C`, the Control was 57% in assay [2] and 31% in assay [5]. In assay [3], this compound had an IC50 of 150 µM.
Consider `CCCCC(C(=O)Nc1ccc(OC)cc1)C(=O)Nc1ccc(OC)cc1`, for which the Control entry in assay [6] was “Insoluble”. Further, in assay [4], the Oxygen consumption rate, % of control is 102%.
Taken in the same sequence, the figures for `CCCCC(C(=O)Nc1ccccc1)C(=O)Nc1ccccc1` were “Insoluble” and 105%.
Taken in the same sequence, the figures for `COc1ccc(NC(=O)CC(=O)Nc2ccc(OC)cc2)cc1` were “Insoluble” and 78%.
On to `O=C(CC(=O)Nc1cccc(O)c1)Nc1cccc(O)c1`, for which the Control in assay [1] was 86%.

The term IC50 denotes the midpoint of a concentration-inhibition curve.
